# Tested on: rice
# Assay: Low temperature assay on rice seedlings
# Assay type: in vivo
# Method in brief: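 Nine-day-old etiolated rice seedlings (grown on water at 30 °C±2 °C, dark) immersed in brassinolide analogues at 1–0.0001 mg/L or pure water, held at 1–5 °C for 24 hr. Plant height, leaf area, root weight read at 3, 6, 9, 12 days; leaf and tiller number at 12 days.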
compound,measurement,setting,value
CC(C)(O)CC[C@@H](O)[C@](C)(O)[C@H]1CC[C@@]2(O)[C@@H]3CC(=O)[C@@H]4C[C@@H](O)[C@@H](O)C[C@]4(C)[C@H]3CC[C@]12C [BR6],Height,"0.01 mg/l, 3 °C, 9 days",7.4 cm
same,Weight of root,"0.01 mg/l, 3 °C, 9 days",2.9 g
same,Area of leaf,"0.01 mg/l, 3 °C, 12 days",13.2 cm^2
same,Height,"0.01 mg/l, 3 °C, 12 days",7.6 cm
same,Number of leaf,"0.01 mg/l, 3 °C, 12 days",3
same,Number of tiller,"0.01 mg/l, 3 °C, 12 days",2
same,Weight of root,"0.01 mg/l, 3 °C, 12 days",2.9 g
same,Area of leaf,"0.01 mg/l, 4 °C, 3 days",10.8 cm^2
same,Height,"0.01 mg/l, 4 °C, 3 days",7.1 cm
same,Weight of root,"0.01 mg/l, 4 °C, 3 days",2.5 g
same,Area of leaf,"0.01 mg/l, 4 °C, 6 days",12.4 cm^2
same,Height,"0.01 mg/l, 4 °C, 6 days",7.3 cm
same,Weight of root,"0.01 mg/l, 4 °C, 6 days",2.6 g
same,Area of leaf,"0.01 mg/l, 4 °C, 9 days",13.7 cm^2
same,Height,"0.01 mg/l, 4 °C, 9 days",7.6 cm
same,Weight of root,"0.01 mg/l, 4 °C, 9 days",2.9 g
same,Area of leaf,"0.01 mg/l, 4 °C, 12 days",13.7 cm^2
same,Height,"0.01 mg/l, 4 °C, 12 days",7.8 cm
same,Number of leaf,"0.01 mg/l, 4 °C, 12 days",3
same,Number of tiller,"0.01 mg/l, 4 °C, 12 days",2
same,Weight of root,"0.01 mg/l, 4 °C, 12 days",3.0 g
same,Area of leaf,"0.01 mg/l, 5 °C, 3 days",10.9 cm^2
same,Height,"0.01 mg/l, 5 °C, 3 days",7.7 cm
same,Weight of root,"0.01 mg/l, 5 °C, 3 days",2.8 g
same,Area of leaf,"0.01 mg/l, 5 °C, 6 days",13.9 cm^2
same,Height,"0.01 mg/l, 5 °C, 6 days",7.8 cm
same,Weight of root,"0.01 mg/l, 5 °C, 6 days",3.0 g
same,Area of leaf,"0.01 mg/l, 5 °C, 9 days",17.1 cm^2
same,Height,"0.01 mg/l, 5 °C, 9 days",8.1 cm
same,Weight of root,"0.01 mg/l, 5 °C, 9 days",3.4 g
same,Area of leaf,"0.01 mg/l, 5 °C, 12 days",18 cm^2
same,Height,"0.01 mg/l, 5 °C, 12 days",8.5 cm
same,Number of leaf,"0.01 mg/l, 5 °C, 12 days",4
same,Number of tiller,"0.01 mg/l, 5 °C, 12 days",3
same,Weight of root,"0.01 mg/l, 5 °C, 12 days",3.9 g
same,Area of leaf,"0.1 mg/l, 1 °C, 3 days",10.1 cm^2
same,Height,"0.1 mg/l, 1 °C, 3 days",7.0 cm
same,Weight of root,"0.1 mg/l, 1 °C, 3 days",2.8 g
same,Area of leaf,"0.1 mg/l, 1 °C, 6 days",12 cm^2
same,Height,"0.1 mg/l, 1 °C, 6 days",7.3 cm
same,Weight of root,"0.1 mg/l, 1 °C, 6 days",3.0 g
same,Area of leaf,"0.1 mg/l, 1 °C, 9 days",12.9 cm^2
same,Height,"0.1 mg/l, 1 °C, 9 days",7.3 cm
same,Weight of root,"0.1 mg/l, 1 °C, 9 days",3.4 g
same,Area of leaf,"0.1 mg/l, 1 °C, 12 days",13.4 cm^2
same,Height,"0.1 mg/l, 1 °C, 12 days",7.5 cm
same,Number of leaf,"0.1 mg/l, 1 °C, 12 days",3
same,Number of tiller,"0.1 mg/l, 1 °C, 12 days",3
same,Weight of root,"0.1 mg/l, 1 °C, 12 days",3.7 g
same,Area of leaf,"0.1 mg/l, 2 °C, 3 days",10.4 cm^2
same,Height,"0.1 mg/l, 2 °C, 3 days",7.1 cm
same,Weight of root,"0.1 mg/l, 2 °C, 3 days",2.9 g
same,Area of leaf,"0.1 mg/l, 2 °C, 6 days",11.8 cm^2
same,Height,"0.1 mg/l, 2 °C, 6 days",7.2 cm
same,Weight of root,"0.1 mg/l, 2 °C, 6 days",3.0 g
same,Area of leaf,"0.1 mg/l, 2 °C, 9 days",12.8 cm^2
same,Height,"0.1 mg/l, 2 °C, 9 days",7.3 cm
same,Weight of root,"0.1 mg/l, 2 °C, 9 days",3.1 g
same,Area of leaf,"0.1 mg/l, 2 °C, 12 days",13 cm^2
same,Height,"0.1 mg/l, 2 °C, 12 days",7.4 cm
same,Number of leaf,"0.1 mg/l, 2 °C, 12 days",3
same,Number of tiller,"0.1 mg/l, 2 °C, 12 days",3
same,Weight of root,"0.1 mg/l, 2 °C, 12 days",3.2 g
same,Area of leaf,"0.1 mg/l, 3 °C, 3 days",10.5 cm^2
same,Height,"0.1 mg/l, 3 °C, 3 days",7.2 cm
same,Weight of root,"0.1 mg/l, 3 °C, 3 days",2.5 g
same,Area of leaf,"0.1 mg/l, 3 °C, 6 days",12 cm^2
same,Height,"0.1 mg/l, 3 °C, 6 days",7.3 cm
same,Weight of root,"0.1 mg/l, 3 °C, 6 days",2.6 g
same,Area of leaf,"0.1 mg/l, 3 °C, 9 days",12.8 cm^2
same,Height,"0.1 mg/l, 3 °C, 9 days",7.4 cm
same,Weight of root,"0.1 mg/l, 3 °C, 9 days",2.8 g
same,Area of leaf,"0.1 mg/l, 3 °C, 12 days",13.2 cm^2
same,Height,"0.1 mg/l, 3 °C, 12 days",7.5 cm
same,Number of leaf,"0.1 mg/l, 3 °C, 12 days",3
same,Number of tiller,"0.1 mg/l, 3 °C, 12 days",2
same,Weight of root,"0.1 mg/l, 3 °C, 12 days",2.9 g
same,Area of leaf,"0.1 mg/l, 4 °C, 3 days",10.8 cm^2
same,Height,"0.1 mg/l, 4 °C, 3 days",7.1 cm
same,Weight of root,"0.1 mg/l, 4 °C, 3 days",2.5 g
same,Area of leaf,"0.1 mg/l, 4 °C, 6 days",12.5 cm^2
same,Height,"0.1 mg/l, 4 °C, 6 days",7.4 cm
same,Weight of root,"0.1 mg/l, 4 °C, 6 days",2.7 g
same,Area of leaf,"0.1 mg/l, 4 °C, 9 days",13.5 cm^2
same,Height,"0.1 mg/l, 4 °C, 9 days",7.5 cm
same,Weight of root,"0.1 mg/l, 4 °C, 9 days",2.9 g
same,Area of leaf,"0.1 mg/l, 4 °C, 12 days",13.8 cm^2
same,Height,"0.1 mg/l, 4 °C, 12 days",7.7 cm
same,Number of leaf,"0.1 mg/l, 4 °C, 12 days",3
same,Number of tiller,"0.1 mg/l, 4 °C, 12 days",2
same,Weight of root,"0.1 mg/l, 4 °C, 12 days",3.1 g
same,Area of leaf,"0.1 mg/l, 5 °C, 3 days",11.1 cm^2
same,Height,"0.1 mg/l, 5 °C, 3 days",7.7 cm
same,Weight of root,"0.1 mg/l, 5 °C, 3 days",2.9 g
same,Area of leaf,"0.1 mg/l, 5 °C, 6 days",13.9 cm^2
same,Height,"0.1 mg/l, 5 °C, 6 days",7.8 cm
same,Weight of root,"0.1 mg/l, 5 °C, 6 days",3.2 g
same,Area of leaf,"0.1 mg/l, 5 °C, 9 days",17.8 cm^2
same,Height,"0.1 mg/l, 5 °C, 9 days",8.4 cm
same,Weight of root,"0.1 mg/l, 5 °C, 9 days",3.5 g
same,Area of leaf,"0.1 mg/l, 5 °C, 12 days",18.9 cm^2
same,Height,"0.1 mg/l, 5 °C, 12 days",8.6 cm
same,Number of leaf,"0.1 mg/l, 5 °C, 12 days",3
same,Number of tiller,"0.1 mg/l, 5 °C, 12 days",2
same,Weight of root,"0.1 mg/l, 5 °C, 12 days",4 g
same,Area of leaf,"1 mg/l, 1 °C, 3 days",10 cm^2
same,Height,"1 mg/l, 1 °C, 3 days",7.1 cm
same,Weight of root,"1 mg/l, 1 °C, 3 days",2.8 g
same,Area of leaf,"1 mg/l, 1 °C, 6 days",11.2 cm^2
same,Height,"1 mg/l, 1 °C, 6 days",7.2 cm
same,Weight of root,"1 mg/l, 1 °C, 6 days",3.1 g
same,Area of leaf,"1 mg/l, 1 °C, 9 days",12.4 cm^2
same,Height,"1 mg/l, 1 °C, 9 days",7.3 cm
same,Weight of root,"1 mg/l, 1 °C, 9 days",3.4 g
same,Area of leaf,"1 mg/l, 1 °C, 12 days",12.8 cm^2
same,Height,"1 mg/l, 1 °C, 12 days",7.3 cm
same,Number of leaf,"1 mg/l, 1 °C, 12 days",3
same,Number of tiller,"1 mg/l, 1 °C, 12 days",3
same,Weight of root,"1 mg/l, 1 °C, 12 days",3.9 g
same,Area of leaf,"1 mg/l, 2 °C, 3 days",10.2 cm^2
same,Height,"1 mg/l, 2 °C, 3 days",7.1 cm
same,Weight of root,"1 mg/l, 2 °C, 3 days",2.8 g
same,Area of leaf,"1 mg/l, 2 °C, 6 days",11.7 cm^2
same,Height,"1 mg/l, 2 °C, 6 days",7.2 cm
same,Weight of root,"1 mg/l, 2 °C, 6 days",3.0 g
same,Area of leaf,"1 mg/l, 2 °C, 9 days",12.6 cm^2
same,Height,"1 mg/l, 2 °C, 9 days",7.3 cm
same,Weight of root,"1 mg/l, 2 °C, 9 days",3.2 g
same,Area of leaf,"1 mg/l, 2 °C, 12 days",13.1 cm^2
same,Height,"1 mg/l, 2 °C, 12 days",7.6 cm
same,Number of leaf,"1 mg/l, 2 °C, 12 days",3
same,Number of tiller,"1 mg/l, 2 °C, 12 days",3
same,Weight of root,"1 mg/l, 2 °C, 12 days",3.9 g
same,Area of leaf,"1 mg/l, 3 °C, 3 days",10.4 cm^2
same,Height,"1 mg/l, 3 °C, 3 days",7.1 cm
same,Weight of root,"1 mg/l, 3 °C, 3 days",2.5 g
same,Area of leaf,"1 mg/l, 3 °C, 6 days",12.2 cm^2
same,Height,"1 mg/l, 3 °C, 6 days",7.3 cm
same,Weight of root,"1 mg/l, 3 °C, 6 days",2.6 g
same,Area of leaf,"1 mg/l, 3 °C, 9 days",12.6 cm^2
same,Height,"1 mg/l, 3 °C, 9 days",7.5 cm
same,Weight of root,"1 mg/l, 3 °C, 9 days",2.9 g
same,Area of leaf,"1 mg/l, 3 °C, 12 days",13.2 cm^2
same,Height,"1 mg/l, 3 °C, 12 days",7.6 cm
same,Number of leaf,"1 mg/l, 3 °C, 12 days",3
same,Number of tiller,"1 mg/l, 3 °C, 12 days",2
same,Weight of root,"1 mg/l, 3 °C, 12 days",2.9 g
same,Area of leaf,"1 mg/l, 4 °C, 3 days",10.9 cm^2
same,Height,"1 mg/l, 4 °C, 3 days",7.1 cm
same,Weight of root,"1 mg/l, 4 °C, 3 days",2.5 g
same,Area of leaf,"1 mg/l, 4 °C, 6 days",12 cm^2
same,Height,"1 mg/l, 4 °C, 6 days",7.5 cm
same,Weight of root,"1 mg/l, 4 °C, 6 days",2.6 g
same,Area of leaf,"1 mg/l, 4 °C, 9 days",13.4 cm^2
same,Height,"1 mg/l, 4 °C, 9 days",7.5 cm
same,Weight of root,"1 mg/l, 4 °C, 9 days",3.0 g
same,Area of leaf,"1 mg/l, 4 °C, 12 days",14 cm^2
same,Height,"1 mg/l, 4 °C, 12 days",7.7 cm
same,Number of leaf,"1 mg/l, 4 °C, 12 days",3
same,Number of tiller,"1 mg/l, 4 °C, 12 days",2
same,Weight of root,"1 mg/l, 4 °C, 12 days",3.2 g
same,Area of leaf,"1 mg/l, 5 °C, 3 days",11.1 cm^2
same,Height,"1 mg/l, 5 °C, 3 days",7.7 cm
same,Weight of root,"1 mg/l, 5 °C, 3 days",2.9 g
same,Area of leaf,"1 mg/l, 5 °C, 6 days",13.6 cm^2
same,Height,"1 mg/l, 5 °C, 6 days",8.0 cm
same,Weight of root,"1 mg/l, 5 °C, 6 days",3.6 g
same,Area of leaf,"1 mg/l, 5 °C, 9 days",18.9 cm^2
same,Height,"1 mg/l, 5 °C, 9 days",8.8 cm
same,Weight of root,"1 mg/l, 5 °C, 9 days",3.7 g
same,Area of leaf,"1 mg/l, 5 °C, 12 days",20 cm^2
same,Height,"1 mg/l, 5 °C, 12 days",8.9 cm
same,Number of leaf,"1 mg/l, 5 °C, 12 days",3
same,Number of tiller,"1 mg/l, 5 °C, 12 days",2
same,Weight of root,"1 mg/l, 5 °C, 12 days",4.5 g
same,Effects on resistance to low temperature compared among analogues,in vivo,"more than those of BR2, BR3 and BR4"

# Reference: patent US9326506B2, “Preparation method, agricultural composition and applications of natural brassinolide analogs” (CHENGDU NEWSUN CROPSCIENCE CO., LTD, priority 2012, dated 2016)
